In test [1] the test system is SW48 human colorectal cancer cells (MSI-H cancer cells). Kind of test: SW48 cell viability, CellTiter-Glo, 120 hours (Example B). The note with it: Homo sapiens, SW48, 120 h, read-out: SW48 pCC50, SW48 cell viability, 120 hours incubation (converted); Table 2. Background: Cellular ATP, detected with luciferase, serves as a proxy for viable cell number.
Test [2] concerns the target T1, recombinant full-length WRN protein (1-1432) (Homo sapiens, UniProt Q14191).
T1 construct: recombinant full-length WRN protein (1-1432)
Kind of test: WRN unwinding activity, fluorogenic 384-well assay (Example A). The note with it: WRN unwinding activity, 4 hr; Table 2; read-out: 4 hr UNW pIC50 (converted). The class given is biochemical. In short, it runs like this: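 Read-out is end-point unwinding of a fluorophore/quencher duplex (ex 525, em 598 nm) after 60 min with 200 μM ATP and 12 nM DNA (2× stocks), EDTA stop. Compound first sat 4 h with 200 pM WRN (2× stock) in pH 8.0 Tris buffer; four-parameter fit gives pIC50.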

From patent US12662451B2, “Chemical compounds and uses thereof” (GLAXOSMITHKLINE INTELLECTUAL PROPERTY (NO.4) LIMITED, priority 2023, dated 2026) come the findings set out here.

T1 sequence (Q14191 whole entry): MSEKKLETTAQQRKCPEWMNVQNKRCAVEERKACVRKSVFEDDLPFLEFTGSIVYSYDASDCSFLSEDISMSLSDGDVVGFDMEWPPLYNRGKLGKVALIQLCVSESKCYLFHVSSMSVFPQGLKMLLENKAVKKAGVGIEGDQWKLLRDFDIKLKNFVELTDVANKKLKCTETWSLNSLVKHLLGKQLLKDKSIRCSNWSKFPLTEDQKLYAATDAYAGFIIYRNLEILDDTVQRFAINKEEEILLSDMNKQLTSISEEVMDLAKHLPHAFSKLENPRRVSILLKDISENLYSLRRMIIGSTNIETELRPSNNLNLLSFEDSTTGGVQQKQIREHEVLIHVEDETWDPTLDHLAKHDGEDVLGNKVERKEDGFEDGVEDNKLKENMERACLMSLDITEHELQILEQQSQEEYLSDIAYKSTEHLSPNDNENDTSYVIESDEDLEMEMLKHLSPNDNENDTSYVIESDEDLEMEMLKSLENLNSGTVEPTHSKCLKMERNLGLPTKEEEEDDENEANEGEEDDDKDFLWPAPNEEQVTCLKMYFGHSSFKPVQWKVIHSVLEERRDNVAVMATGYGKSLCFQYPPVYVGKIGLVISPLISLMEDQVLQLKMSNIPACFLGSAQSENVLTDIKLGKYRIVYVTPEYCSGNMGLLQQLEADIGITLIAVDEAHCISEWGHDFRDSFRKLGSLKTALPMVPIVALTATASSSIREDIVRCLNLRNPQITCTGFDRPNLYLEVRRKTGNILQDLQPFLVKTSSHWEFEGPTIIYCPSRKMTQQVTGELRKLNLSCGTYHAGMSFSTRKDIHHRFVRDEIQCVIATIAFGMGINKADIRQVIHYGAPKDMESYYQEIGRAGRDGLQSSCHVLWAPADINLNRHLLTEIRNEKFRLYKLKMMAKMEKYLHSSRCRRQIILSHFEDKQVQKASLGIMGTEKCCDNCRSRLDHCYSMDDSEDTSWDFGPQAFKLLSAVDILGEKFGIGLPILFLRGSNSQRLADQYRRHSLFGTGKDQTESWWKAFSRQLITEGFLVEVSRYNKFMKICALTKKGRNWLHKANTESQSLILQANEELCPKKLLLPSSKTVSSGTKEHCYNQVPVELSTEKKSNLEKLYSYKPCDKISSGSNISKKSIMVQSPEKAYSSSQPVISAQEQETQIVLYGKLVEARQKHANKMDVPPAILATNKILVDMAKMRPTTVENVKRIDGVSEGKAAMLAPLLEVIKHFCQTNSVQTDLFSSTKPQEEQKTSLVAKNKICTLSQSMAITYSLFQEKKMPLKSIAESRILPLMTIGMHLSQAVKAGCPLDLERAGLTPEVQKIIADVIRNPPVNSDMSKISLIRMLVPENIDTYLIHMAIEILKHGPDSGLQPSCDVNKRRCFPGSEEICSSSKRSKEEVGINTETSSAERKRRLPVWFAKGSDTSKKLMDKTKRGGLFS

In the case of `Cc1nc2cc(S(=O)(=O)N(C)c3ccc([C@@H]4C[C@@H](N5CC[C@H](F)C5)C[C@H](C(=O)Nc5ccc(C(F)(F)F)cc5F)[C@H]4C(=O)O)cc3)ccc2n1C` (stereo in doubt) [Example 379, rel-(1R*,2R*,4S*,6S*)-2-((2-fluoro-4-(trifluoromethyl)phenyl)carbamoyl)-4-((S)-3-fluoropyrrolidin-1-yl)-6-(4-((N,1,2-trimethyl-1H-benzo[d]imidazole)-5-sulfonamido)phenyl)cyclohexane-1-carboxylic acid], the CC50 in test [1] is 20 µM. The IC50 in test [2] was 501 nM.

`Cc1nc2cc(S(=O)(=O)N(C)c3ccc([C@@H]4C[C@@H](N5CC[C@@H](F)C5)C[C@H](C(=O)Nc5ccc(C(F)(F)F)cc5F)[C@H]4C(=O)O)cc3)ccc2n1C` (stereo in doubt) [Example 384, rel-(1R*,2R*,4S*,6S*)-2-((2-fluoro-4-(trifluoromethyl)phenyl)carbamoyl)-4-((R)-3-fluoropyrrolidin-1-yl)-6-(4-((N,1,2-trimethyl-1H-benzo[d]imidazole)-5-sulfonamido)phenyl)cyclohexane-1-carboxylic acid]: the CC50 in test [1] was 25.1 µM. In addition, the IC50 in test [2] is 398 nM.

Turning to `Cc1nc2cc(S(=O)(=O)N(C)c3ccc([C@@H]4C[C@@]5(CCCO5)C[C@H](C(=O)Nc5ccc(C(F)(F)F)cc5F)[C@H]4C(=O)O)cc3)ccc2n1C` (stereo in doubt) [Example 387, rel-(5R,7R,8R,9S)-7-((2-fluoro-4-(trifluoromethyl)phenyl)carbamoyl)-9-(4-((N,1,2-trimethyl-1H-benzo[d]imidazole)-5-sulfonamido)phenyl)-1-oxaspiro[4.5]decane-8-carboxylic acid], the CC50 in test [1] is 10 µM. For the same compound, in test [2], the IC50 is 63.1 nM.

For `O=C(O)[C@@H]1[C@@H](c2ccc(-c3cccc4[nH]ncc34)cc2)CCC[C@H]1C(=O)Nc1ccc(C(F)(F)F)cc1F` [Example 1, (1R,2S,6R)-2-(4-(1H-indazol-4-yl)phenyl)-6-((2-fluoro-4-(trifluoromethyl)phenyl)carbamoyl)cyclohexane-1-carboxylic acid], the CC50 in test [1] was 10 µM. For the same compound, in test [2], the IC50 was 1000 nM.

For the compound `O=C(O)[C@@H]1[C@@H](c2ccc(-c3cccc4cnccc34)cc2)CCC[C@H]1C(=O)Nc1ccc(C(F)(F)F)cc1F` [Example 2, (1R,2R,6S)-2-((2-fluoro-4-(trifluoromethyl)phenyl)carbamoyl)-6-(4-(isoquinolin-5-yl)phenyl)cyclohexane-1-carboxylic acid], the CC50 in test [1] is 12.6 µM. Besides, the IC50 in test [2] is 1260 nM.

`Cn1nccc1-c1ccc([C@H]2CCC[C@@H](C(=O)Nc3ccc(C(F)(F)F)cc3F)[C@@H]2C(=O)O)cc1` [Example 3, (1R,2R,6S)-2-((2-fluoro-4-(trifluoromethyl)phenyl)carbamoyl)-6-(4-(1-methyl-1H-pyrazol-5-yl)phenyl)cyclohexane-1-carboxylic acid]: the CC50 in test [1] was 10 µM. Also, the IC50 in test [2] is 3.98 nM.

Turning to `O=C(O)[C@@H]1[C@@H](c2ccc(-c3cncnc3)cc2)CCC[C@H]1C(=O)Nc1ccc(C(F)(F)F)cc1F` [Example 6, (1R,2R,6S)-2-((2-fluoro-4-(trifluoromethyl)phenyl)carbamoyl)-6-(4-(pyrimidin-5-yl)phenyl)cyclohexane-1-carboxylic acid], the CC50 in test [1] is 10 µM. The IC50 in test [2] was 6.31 nM.

For `O=C(O)[C@@H]1[C@@H](c2ccc(-c3cccnc3)cc2)CCC[C@H]1C(=O)Nc1ccc(C(F)(F)F)cc1F` [Example 8, (1R,2R,6S)-2-((2-fluoro-4-(trifluoromethyl)phenyl)carbamoyl)-6-(4-(pyridin-3-yl)phenyl)cyclohexane-1-carboxylic acid], the CC50 in test [1] was 7.94 µM. In addition, the IC50 in test [2] is 3.98 nM.

With `O=C(O)[C@@H]1[C@@H](c2ccc(-c3ccco3)cc2)CCC[C@H]1C(=O)Nc1ccc(C(F)(F)F)cc1F` [Example 9, (1R,2R,6S)-2-((2-fluoro-4-(trifluoromethyl)phenyl)carbamoyl)-6-(4-(furan-2-yl)phenyl)cyclohexane-1-carboxylic acid], the CC50 in test [1] is 25.1 µM. Also, the IC50 in test [2] was 794 nM.

For the compound `O=C(O)[C@@H]1[C@@H](c2ccc(-c3ccoc3)cc2)CCC[C@H]1C(=O)Nc1ccc(C(F)(F)F)cc1F` [Example 10, (1R,2R,6S)-2-((2-fluoro-4-(trifluoromethyl)phenyl)carbamoyl)-6-(4-(furan-3-yl)phenyl) cyclohexane-1-carboxylic acid], the CC50 in test [1] is 12.6 µM. In test [2], the IC50 is 100 nM.

On to `O=C(O)[C@@H]1[C@@H](c2ccc(-c3ccccc3)cc2)CCC[C@H]1C(=O)Nc1ccc(C(F)(F)F)cc1F` [Example 11, (1R,2S,6R)-2-([1,1′-biphenyl]-4-yl)-6-((2-fluoro-4-(trifluoromethyl)phenyl)carbamoyl)cyclohexane-1-carboxylic acid], for which the CC50 in test [1] was 15.8 µM. Further, the IC50 in test [2] was 158 nM.

Turning to `O=C(O)[C@@H]1[C@@H](c2ccc(-c3cccc4c3COC4)cc2)CCC[C@H]1C(=O)Nc1ccc(C(F)(F)F)cc1F` [Example 15, (1R,2S,6R)-2-(4-(1,3-dihydroisobenzofuran-4-yl)phenyl)-6-((2-fluoro-4-(trifluoromethyl)phenyl)carbamoyl)cyclohexane-1-carboxylic acid], the CC50 in test [1] is 20 µM. Further, the IC50 in test [2] is 158 nM.

Regarding `O=C(O)[C@@H]1[C@@H](c2ccc(-c3ccnnc3)cc2)CCC[C@H]1C(=O)Nc1ccc(C(F)(F)F)cc1F` [Example 18, (1R,2R,6S)-2-((2-fluoro-4-(trifluoromethyl)phenyl)carbamoyl)-6-(4-(pyridazin-4-yl)phenyl)cyclohexane-1-carboxylic acid], the CC50 in test [1] was 12.6 µM. Besides, the IC50 in test [2] is 5.01 nM.

As for `Nc1ccccc1-c1ccc([C@H]2CCC[C@@H](C(=O)Nc3ccc(C(F)(F)F)cc3F)[C@@H]2C(=O)O)cc1` [Example 24, (1R,2S,6R)-2-(2′-amino-[1,1′-biphenyl]-4-yl)-6-((2-fluoro-4-(trifluoromethyl)phenyl)carbamoyl)cyclohexane-1-carboxylic acid], the CC50 in test [1] is 15.8 µM. In addition, the IC50 in test [2] was 79.4 nM.

Consider `O=C(O)[C@@H]1[C@@H](c2ccc(-c3ccc(F)nc3)cc2)CCC[C@H]1C(=O)Nc1ccc(C(F)(F)F)cc1F` [Example 25, (1R,2R,6S)-2-((2-fluoro-4-(trifluoromethyl)phenyl)carbamoyl)-6-(4-(6-fluoropyridin-3-yl)phenyl)cyclohexane-1-carboxylic acid], for which the CC50 in test [1] was 5.01 µM. In test [2], the IC50 is 1.58 nM.

For `O=C(O)[C@@H]1[C@@H](c2ccc(-c3cncc(F)c3)cc2)CCC[C@H]1C(=O)Nc1ccc(C(F)(F)F)cc1F` [Example 27, (1R,2R,6S)-2-((2-fluoro-4-(trifluoromethyl)phenyl)carbamoyl)-6-(4-(5-fluoropyridin-3-yl)phenyl)cyclohexane-1-carboxylic acid], the CC50 in test [1] was 3.98 µM. Also, in test [2], the IC50 was 12.6 nM.

Take `O=C(O)[C@@H]1[C@@H](c2ccc(-c3cccs3)cc2)CCC[C@H]1C(=O)Nc1ccc(C(F)(F)F)cc1F` [Example 31, (1R,2R,6S)-2-((2-fluoro-4-(trifluoromethyl)phenyl)carbamoyl)-6-(4-(thiophen-2-yl)phenyl)cyclohexane-1-carboxylic acid]: in test [1], the CC50 was 10 µM. In addition, the IC50 in test [2] is 100 nM.

Take `N#Cc1cscc1-c1ccc([C@H]2CCC[C@@H](C(=O)Nc3ccc(C(F)(F)F)cc3F)[C@@H]2C(=O)O)cc1` [Example 32, (1R,2S,6R)-2-(4-(4-cyanothiophen-3-yl)phenyl)-6-((2-fluoro-4-(trifluoromethyl)phenyl)carbamoyl)cyclohe xane-1-carboxylic acid]: the CC50 in test [1] is 10 µM. For the same compound, the IC50 in test [2] was 79.4 nM.

With `O=C(O)[C@@H]1[C@@H](c2ccc(-c3cccc4sccc34)cc2)CCC[C@H]1C(=O)Nc1ccc(C(F)(F)F)cc1F` [Example 35, (1R,2S,6R)-2-(4-(benzo[b]thiophen-4-yl)phenyl)-6-((2-fluoro-4-(trifluoromethyl)phenyl)carbamoyl) cyclohexane-1-carboxylic acid], in test [1], the CC50 is 6.31 µM. Moreover, the IC50 in test [2] is 2000 nM.

Turning to `O=C(O)[C@@H]1[C@@H](c2ccc(-c3nsc4ccccc34)cc2)CCC[C@H]1C(=O)Nc1ccc(C(F)(F)F)cc1F` [Example 36, (1R,2S,6R)-2-(4-(benzo[d]isothiazol-3-yl)phenyl)-6-((2-fluoro-4-(trifluoromethyl)phenyl)carbamoyl)cyclohe xane-1-carboxylic acid], in test [1], the CC50 is 5.01 µM. In test [2], the IC50 was 631 nM.

On to `O=C(O)[C@@H]1[C@@H](c2ccc(-c3ccc(F)nn3)cc2)CCC[C@H]1C(=O)Nc1ccc(C(F)(F)F)cc1F` [Example 37], for which, in test [1], the CC50 was 2.51 µM. Besides, the IC50 in test [2] is 2 nM.

On to `Cc1nnc(-c2ccc([C@H]3CCC[C@@H](C(=O)Nc4ccc(C(F)(F)F)cc4F)[C@@H]3C(=O)O)cc2)s1` [Example 41, (1R,2R,6S)-2-((2-fluoro-4-(trifluoromethyl)phenyl)carbamoyl)-6-(4-(5-methyl-1,3,4-thiadiazol-2-yl)phenyl)cyclohexane-1-carboxylic acid], for which the CC50 in test [1] is 3.98 µM. Also, in test [2], the IC50 was 5.01 nM.

Regarding `O=C(O)[C@@H]1[C@@H](c2ccc(-c3cnoc3)cc2)CCC[C@H]1C(=O)Nc1ccc(C(F)(F)F)cc1F` [Example 48, (1R,2R,6S)-2-((2-fluoro-4-(trifluoromethyl)phenyl)carbamoyl)-6-(4-(isoxazol-4-yl)phenyl)cyclohexane-1-carboxylic acid], in test [1], the CC50 is 5.01 µM. In addition, the IC50 in test [2] is 15.8 nM.
